Data from US20210008161A1, “METHODS AND COMPOSITIONS FOR IMPROVED HOMOLOGY DIRECTED REPAIR” (CRISPR THERAPEUTICS AG, priority 2019, published 2021).

Experiments:
[1] = system: human LT-HSPCs administered to cKit mice; assay: Erythroid cell enucleation in mouse bone marrow; assay type: in vivo; conditions: bone marrow 16 weeks; vs cells treated with RNP-only or AAV-only; FIG. 28
Method: The functionality of the hematopoietic compartment in recipient mice was evaluated by measuring erythroid cell enucleation in bone marrow collected at 16 weeks post-engraftment. Mammalian erythrocytes extrude their nucleus prior to entering circulation. Human CD34-expressing LT-HSPCs are expected to differentiate into erythrocytes following engraftment, however the efficiency of enucleation can be low. Assessment of erythroid cell enucleation provides a measure of the ability of edited CD34 expressing cells to differentiate into erythroid cells compared to the unedited controls (i.e., ability to differentiate into functional cell types). Percent enucleation was compared for LT-HSPCs gene edited with Cas9/gRNA RNP and AAV given pre-EP or post-EP. […] Additionally, levels of enucleation were compared for LT-HSPCs gene edited with RNP+AAV in the presence of i53 or Nu7441.

[2] = system: CD34-expressing LT-HSPCs; assay: HDR insertion of AAV-delivered GFP donor into HBB locus (GFP fluorescence); assay type: cell-based, human
Method: Frozen CD34-expressing LT-HSPCs derived from plerixafor (i.e., Mozibil®)+GCSF-dual mobilized peripheral blood obtained from healthy human donors were purchased from a commercial vendor. LT-HSPCs were maintained in culture media comprised of the reagents shown in Table 4 and were incubated at 37° C., 5% carbon dioxide, 4% oxygen. […] 2×10^5 cells were edited with 3 μg Cas9 and 3 μg gRNA. The target gene sequence (including target sequence with PAM), R02 spacer sequence, and R02 sgRNA sequence are identified in Table 3.
The cells were transfected with a dsDNA homology donor encoding GFP under a SFFV promoter (SEQ ID NO: 60) that was delivered by AAV (SEQ ID NO: 56). […] The HDR efficiency was determined by measuring the level of GFP fluorescence in the cells following electroporation. To determine the effect of 53BP1 inhibition on HDR efficiency, the 53BP1 inhibitor i53 was introduced as an mRNA-encoded protein to the cells during electroporation with Cas9/gRNA RNP and AAV DNA that serves as a donor for homology directed repair.
The effect of 53BP1 inhibition on HDR efficiency was compared to other mRNA-encoded proteins that inhibit the NHEJ pathway. These included the proteins CYREN1 and CYREN2 that inhibit Ku70/80, a heterodimer that binds DNA blunt ends to prevent processing of 3′ single-stranded DNA tails necessary for HDR repair. Cells were electroporated with RNP, an AAV-GFP homology donor and mRNA encoding either i53 (mRNA ORF shown in SEQ ID NO: 69), CYREN1, or CYREN2.
The effect of treatment with i53 and Nu7441 was compared for improving efficiency of HDR repair of the HBB locus. Cells were treated with different doses of Nu7441 or with mRNA encoding i53 (ORF shown by SEQ ID NO: 69).

[3] = system: CD34-expressing LT-HSPCs derived from human patients with sickle cell disease; assay: Hemoglobin expression (HbF, HbA, HbS) by HPLC; assay type: cell-based
Method: Hemoglobin expressed by edited cells that were differentiated to erythrocytes was assessed. Hemoglobin A (HbA) is composed of 2 alpha-globin and 2 beta-globin units and is the dominant hemoglobin in adult humans. In human carriers of the HBB E6V mutation, a high proportion of total hemoglobin is hemoglobin S (HbS), which is composed of 2 alpha-globin units and 2 beta-globin units with E6V.
Briefly, on day 18 post-editing, 1×10^6 cells were harvested, centrifuged, and washed with PBS. The cells were prepared for HPLC analysis. Hemoglobin variants were quantified in cell samples using reverse-phase HPLC chromatography and gradient elution. […] Thus, high levels of HDR achieved with i53 contribute to normalization of hemoglobin expression products.

[4] = system: patient-derived PBMCs; assay: SCD gene correction by HDR and INDEL frequency by NGS in patient-derived PBMCs; assay type: cell-based, human
Method: It was further evaluated if editing of patient-derived PBMCs in the presence of i53 would yield high levels of correction of the HBB gene. […] The PBMCs were expanded in StemSpan SFEM II (1×)+StemSpan CC100 (1×)+Dexamethasone 1 μM+hEPO 2 IU/mL at 37° C. under normoxic conditions (20% O2 concentration). The cells were edited following five days of in vitro culture. […] On day 8, the cells were transferred to Phase 1 media, and differentiation to erythrocytes was performed through day 18 as described above. Efficiency of HDR at the HBB gene locus was evaluated on day 12 using the NGS assay described in Example 4. Also evaluated was the frequency of INDELs at the R02 cut-site as measured by NGS.

[5] = system: CD34-expressing LT-HSPCs derived from human patients with sickle cell disease; assay: SCD gene correction (E6V to E6) by HDR and INDEL frequency by NGS in patient-derived cells
Method: The effect of i53 on HDR efficiency was evaluated in cells derived from patients with a sickle cell mutation in the HBB gene. Specifically, CD34-expressing LT-HSPCs derived from human patients with sickle cell disease were edited with SpCas9, R02 guide, and AAV.323 encoding a correction to the E6V mutation in the HBB gene.
Briefly, CD34-expressing LT-HSPCs were derived from plerixafor+GCSF-dual mobilized peripheral blood obtained from a human donor with sickle cell disease. The cells were seeded in Phase I media at a cell density of 2×10^5 cells/mL. Cells were cultured at 37° C. under normoxic conditions (i.e., oxygen 20%).
Editing of cells was performed following two days of in vitro culture. Briefly, 5×10^5 cells were electroporated with RNP containing 20 μg SpCas9 and 20 μg R02 sgRNA, AAV.323 at a dose of 10,000 MOI, and 1 μg mRNA encoding i53. The cells were incubated with AAV.323 for 1 hour prior to electroporation. The cells were edited by electroporation with R02+AAV.323+i53 mRNA and compared to control cells edited with R02 only, R02+AAV.323, or cells exposed to electroporation without RNP or AAV editing components (mock EP).
The efficiency of gene correction by HDR repair at the HBB gene locus was evaluated by NGS assay as described in Example 3. Frequency of INDELs at the R02 cut site was evaluated by NGS analysis. […]

[6] = 0.75 μg mRNA encoding i53, 5 μM Nu7441, control mRNA DM, FIG. 6C
[7] = day 18 post-editing, compared to mock EP control cells, FIG. 34A

Compound	levels of erythroid cell enucleation [1]	HDR efficiency [2, 6]	HbA levels [3, 7]	HbS levels [3, 7]	decrease in HbS levels ([3]; relative to mock EP control cells, FIG. 34B) [%]	HDR efficiency at each dose ([2]; 0.5, 1, and 2 μg i53 mRNA, FIG. 6A)	fold increase in HDR efficiency ([2]; GFP donor into HBB locus, mRNA encoding i53, over RNP+AAV-only, FIG. 6A)	HDR efficiency ([2]; mRNA-encoded proteins, i53 mRNA at 0.3 μg or 1 μg, over RNP+AAV-only, FIG. 6B)	frequency of INDELs ([4]; compared to control cells, FIG. 35B)	frequency of correction of the HBB gene by HDR repair ([4]; day 12, FIG. 35A)	level of HDR repair and frequency of INDELs in HBB, PBMCs vs CD34-expressing LT-HSPCs ([4]; edited in the presence of i53)	incorporation of the E6V→E6 gene correction ([5]; R02 RNP + AAV.323 + 1 μg i53 mRNA, FIG. 32A, 34B) [%]	fold lower frequency of INDELs at the R02 cut site ([5]; compared to cells edited with RNP+AAV.323 alone, FIG. 32B) [fold]
O=c1cc(N2CCOCC2)oc2c(-c3cccc4c3sc3ccccc34)cccc12 [Nu7441]	similar	comparable increase											
i53: polypeptide inhibitor of 53BP1 (SEQ ID NO: 70), introduced as an mRNA-encoded protein (ORF SEQ ID NO: 69)	similar	comparable increase	increased	dramatically reduced	90	improved	approximately 1.3 fold	increased	reduced	approximately 60%	comparable	66	1.9
